{"source": "patent US12077503B2", "about": "“Substituted cyclic amides and their use as herbicides” (FMC CORPORATION, priority 2015, dated 2024)", "type_in_all_cases": "in vivo", "key": {"[1]": {"test_system": "barnyardgrass (Echinochloa crus-galli)", "test": "Test G Pre-Emergence Protocol", "conditions": "Echinochloa crus-galli, pre-emergence, 312 h, evaluated after 13 days", "method_in_brief": "(§1)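 Spraying took place one day after sowing, at 15.625, 62.5 or 250 g/ha, using an acetone/water (50:50) spray solution containing 0.5% Tween 20. Plants were kept under glasshouse conditions (24/16 °C, 14 h light, 65% humidity, watered twice daily), and injury was rated 0–100 at day 13.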"}, "corn (Zea mays) [2]": {"test_system": "corn (Zea mays)", "test": "Test G Pre-Emergence Protocol", "conditions": "Zea mays, pre-emergence, 312 h, evaluated after 13 days", "method_in_brief": "as §1"}, "[3]": {"test_system": "giant foxtail (Setaria faberi)", "test": "Test G Pre-Emergence Protocol", "conditions": "Setaria faberi, pre-emergence, 312 h, evaluated after 13 days", "method_in_brief": "as §1"}, "[4]": {"test_system": "ivy-leaved morning glory (Ipomoea hederacea)", "test": "Test G Pre-Emergence Protocol", "conditions": "Ipomoea, pre-emergence, 312 h, evaluated after 13 days", "method_in_brief": "as §1"}, "[5]": {"test_system": "redroot pigweed (Amaranthus retroflexus)", "test": "Test G Pre-Emergence Protocol", "conditions": "Amaranthus retroflexus, pre-emergence, 312 h, evaluated after 13 days", "method_in_brief": "as §1"}, "[6]": {"test_system": "velvetleaf (Abutilon theophrasti)", "test": "Test G Pre-Emergence Protocol", "conditions": "Abutilon theophrasti, pre-emergence, 312 h, evaluated after 13 days", "method_in_brief": "as §1"}, "[7]": {"test_system": "barnyardgrass (Echinochloa crus-galli)", "test": "Test G Post-Emergence Protocol", "conditions": "Echinochloa crus-galli, post-emergence, 312 h, read-out: Barnyardgrass damage rating", "method_in_brief": "(§2)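 Damage was rated 13 days after treatment from 0 (none) to 100 (plant killed). Compound was applied as a spray at 15.625, 62.5 or 250 g/ha in 50:50 acetone/water containing 0.5% Tween 20, onto 8-day-old potted plants kept in a glasshouse (24/16 °C, 14 h light, 65% humidity).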"}, "corn (Zea mays) [8]": {"test_system": "corn (Zea mays)", "test": "Test G Post-Emergence Protocol", "conditions": "Zea mays, post-emergence, 312 h, read-out: Corn damage rating", "method_in_brief": "as §2"}, "[9]": {"test_system": "giant foxtail (Setaria faberi)", "test": "Test G Post-Emergence Protocol", "conditions": "Setaria faberi, post-emergence, 312 h, read-out: Foxtail, Giant damage rating", "method_in_brief": "as §2"}, "[10]": {"test_system": "ivy-leaved morning glory (Ipomoea hederacea)", "test": "Test G Post-Emergence Protocol", "conditions": "Ipomoea, post-emergence, 312 h, read-out: Morningglory, Ivy-leaved damage rating", "method_in_brief": "as §2"}, "[11]": {"test_system": "redroot pigweed (Amaranthus retroflexus)", "test": "Test G Post-Emergence Protocol", "conditions": "Amaranthus retroflexus, post-emergence, 312 h, read-out: Pigweed, Redroot damage rating", "method_in_brief": "as §2"}, "[12]": {"test_system": "velvetleaf (Abutilon theophrasti)", "test": "Test G Post-Emergence Protocol", "conditions": "Abutilon theophrasti, post-emergence, 312 h, read-out: Velvetleaf damage rating", "method_in_brief": "as §2"}, "[13]": {"conditions": "15.625 g ai/ha, evaluated after 13 days (100=total damage to plant; 0=no damage to plant)"}, "[14]": {"conditions": "62.5 g ai/ha, evaluated after 13 days, 100=total damage to plant, 0=no damage to plant"}, "[15]": {"conditions": "250 g ai/ha, evaluated after 13 days, 100=total damage to plant, 0=no damage to plant"}}, "data": [{"smiles": "CN1C[C@H](c2ccc(Cl)cc2)[C@@H](C(=O)Nc2cnccc2C(F)(F)F)C1=O", "note": "[Compound 1812]", "values": [{"measurement": "pest or weed control at 15.625 g/ha", "setting": "[1]; 15.625 g ai/ha, read-out: Barnyardgrass damage rating (100=total damage to plant; 0=no damage to plant)", "value": 0, "unit": "%"}, {"measurement": "pest or weed control at 62.5 g/ha", "setting": "[1]; 62.5 g ai/ha, 100=total damage to plant, 0=no damage to plant, read-out: Barnyardgrass damage rating", "value": 0, "unit": "%"}, {"measurement": "pest or weed control at 250 g/ha", "setting": "[1]; 250 g ai/ha, read-out: Barnyardgrass damage rating (100=total damage to plant; 0=no damage to plant)", "value": 70, "unit": "%"}, {"measurement": "plant injury at 15.625 g/ha", "setting": "corn (Zea mays) [2]; 15.625 g ai/ha, read-out: Corn damage rating (100=total damage to plant; 0=no damage to plant)", "value": 0, "unit": "%"}, {"measurement": "plant injury at 62.5 g/ha", "setting": "corn (Zea mays) [2]; 62.5 g ai/ha, 100=total damage to plant, 0=no damage to plant, read-out: Corn damage rating", "value": 0, "unit": "%"}, {"measurement": "plant injury at 250 g/ha", "setting": "corn (Zea mays) [2]; 250 g ai/ha, read-out: Corn damage rating (100=total damage to plant; 0=no damage to plant)", "value": 40, "unit": "%"}, {"measurement": "pest or weed control at 15.625 g/ha", "setting": "[3]; 15.625 g ai/ha, read-out: Foxtail, Giant damage rating (100=total damage to plant; 0=no damage to plant)", "value": 90, "unit": "%"}, {"measurement": "pest or weed control at 62.5 g/ha", "setting": "[3]; 62.5 g ai/ha, 100=total damage to plant, 0=no damage to plant, read-out: Foxtail, Giant damage rating", "value": 90, "unit": "%"}, {"measurement": "pest or weed control at 250 g/ha", "setting": "[3]; 250 g ai/ha, read-out: Foxtail, Giant damage rating (100=total damage to plant; 0=no damage to plant)", "value": 90, "unit": "%"}, {"measurement": "pest or weed control at 15.625 g/ha", "setting": "[4]; 15.625 g ai/ha, read-out: Morningglory, Ivy-leaved damage rating (100=total damage to plant; 0=no damage to plant)", "value": 0, "unit": "%"}, {"measurement": "pest or weed control at 62.5 g/ha", "setting": "[4]; 62.5 g ai/ha, 100=total damage to plant, 0=no damage to plant, read-out: Morningglory, Ivy-leaved damage rating", "value": 0, "unit": "%"}, {"measurement": "pest or weed control at 250 g/ha", "setting": "[4]; 250 g ai/ha, read-out: Morningglory, Ivy-leaved damage rating (100=total damage to plant; 0=no damage to plant)", "value": 40, "unit": "%"}, {"measurement": "pest or weed control at 15.625 g/ha", "setting": "[5]; 15.625 g ai/ha, read-out: Pigweed, Redroot damage rating (100=total damage to plant; 0=no damage to plant)", "value": 0, "unit": "%"}, {"measurement": "pest or weed control at 62.5 g/ha", "setting": "[5]; 62.5 g ai/ha, 100=total damage to plant, 0=no damage to plant, read-out: Pigweed, Redroot damage rating", "value": 20, "unit": "%"}, {"measurement": "pest or weed control at 250 g/ha", "setting": "[5]; 250 g ai/ha, read-out: Pigweed, Redroot damage rating (100=total damage to plant; 0=no damage to plant)", "value": 70, "unit": "%"}, {"measurement": "pest or weed control at 15.625 g/ha", "setting": "[6]; 15.625 g ai/ha, read-out: Velvetleaf damage rating (100=total damage to plant; 0=no damage to plant)", "value": 0, "unit": "%"}, {"measurement": "pest or weed control at 62.5 g/ha", "setting": "[6]; 62.5 g ai/ha, 100=total damage to plant, 0=no damage to plant, read-out: Velvetleaf damage rating", "value": 40, "unit": "%"}, {"measurement": "pest or weed control at 250 g/ha", "setting": "[6]; 250 g ai/ha, read-out: Velvetleaf damage rating (100=total damage to plant; 0=no damage to plant)", "value": 80, "unit": "%"}, {"measurement": "pest or weed control at 15.625 g/ha", "setting": "[7]; [13]", "value": 0, "unit": "%"}, {"measurement": "pest or weed control at 62.5 g/ha", "setting": "[7]; [14]", "value": 0, "unit": "%"}, {"measurement": "pest or weed control at 250 g/ha", "setting": "[7]; [15]", "value": 70, "unit": "%"}, {"measurement": "plant injury at 15.625 g/ha", "setting": "corn (Zea mays) [8]; [13]", "value": 0, "unit": "%"}, {"measurement": "plant injury at 62.5 g/ha", "setting": "corn (Zea mays) [8]; [14]", "value": 0, "unit": "%"}, {"measurement": "plant injury at 250 g/ha", "setting": "corn (Zea mays) [8]; [15]", "value": 50, "unit": "%"}, {"measurement": "pest or weed control at 15.625 g/ha", "setting": "[9]; [13]", "value": 0, "unit": "%"}, {"measurement": "pest or weed control at 62.5 g/ha", "setting": "[9]; [14]", "value": 80, "unit": "%"}, {"measurement": "pest or weed control at 250 g/ha", "setting": "[9]; [15]", "value": 80, "unit": "%"}, {"measurement": "pest or weed control at 15.625 g/ha", "setting": "[10]; [13]", "value": 0, "unit": "%"}, {"measurement": "pest or weed control at 62.5 g/ha", "setting": "[10]; [14]", "value": 50, "unit": "%"}, {"measurement": "pest or weed control at 250 g/ha", "setting": "[10]; [15]", "value": 70, "unit": "%"}, {"measurement": "pest or weed control at 15.625 g/ha", "setting": "[11]; [13]", "value": 0, "unit": "%"}, {"measurement": "pest or weed control at 62.5 g/ha", "setting": "[11]; [14]", "value": 20, "unit": "%"}, {"measurement": "pest or weed control at 250 g/ha", "setting": "[11]; [15]", "value": 50, "unit": "%"}, {"measurement": "pest or weed control at 15.625 g/ha", "setting": "[12]; [13]", "value": 0, "unit": "%"}, {"measurement": "pest or weed control at 62.5 g/ha", "setting": "[12]; [14]", "value": 10, "unit": "%"}, {"measurement": "pest or weed control at 250 g/ha", "setting": "[12]; [15]", "value": 60, "unit": "%"}]}]}
